The target of the assay is T1, Keap1-Nrf2 PPI (Keap1 kelch domain protein, FITC labeled Nrf2 9 peptide) (Homo sapiens, UniProt Q14145).
T1 construct: 10 μL 12 nm Keap1 kelch domain protein
The experiment in a line: Fluorescence polarization based Keap1-Nrf2 PPI competitive inhibition experiment (FP experiment). As to conditions: FP experiment. The class given is binding. The procedure:
1. Keap1-Nrf2 PPI Competitive Inhibition Test Based on Fluorescence Polarization (FP Experiment)
The 384-well blackboard model 3676 produced by Corning is used in FP experiment, with a total volume of reaction of 40 μL. 20 μL compound, 10 μL 4 nm FITC labeled Nrf2 9 peptide, 10 μL 12 nm Keap1 kelch domain protein are added to the well in order. 20 μL 200 nM DDO-1002, 10 μL 4 nM of the FITC-labeled Nrf2 9 peptide, 10 μL 12 nM of Keap1 Ketch domain protein are used in the positive control; 20 μL HEPES buffer, 10 μL 4 nM of the FITC-labeled Nrf2 9 peptide, 10 μL, 12 nM of Keap1 Kelch domain protein are used in the negative control; 10 μL 4 nM of the FITC-labeled Nrf2 9 peptide, 30 μL of HEPES buffer are used in the blank control. After addition is complete, they are incubated for 30 min at room temperature. The detection instrument is a SpectraMax Multi-Mode Microplate Reader (Molecular Devices), the excitation light wavelength selected is 485 nm, the emission light wavelength is 545 nm, and the fluorescence intensity in the horizontal and vertical directions is detected to calculate the polarization value. The inhibition rate is calculated as: inhibition %=[…]/(Pmax−Pmin) wherein Pobs is the polarization value of the compound well, Pmax is the polarization value of the negative control well, and Pmin is the polarization value of the blank well. Data treatment is performed using GraphPad Prism, and IC50 of the compound is calculated using a concentration-inhibition rate curve. The IC50 values for each compound are as previously described.

Where [1] appears, read: general formula III compounds, unit inferred.
Setting [2] is: general formula I / II compounds.
Setting [3] is: general formula V / VI compounds.

In patent publication US11773057B2, “Naphthalenesulfonamide compound, preparation method, and application” (CHINA PHARMACEUTICAL UNIVERSITY, priority 2019, dated 2023) one finds IC50 data, which are given here for 31 molecules.

The term IC50 denotes the concentration needed to halve the response being measured. A lower IC50 goes with greater potency in that assay.

T1 sequence (Q14145 321-609 limits assumed): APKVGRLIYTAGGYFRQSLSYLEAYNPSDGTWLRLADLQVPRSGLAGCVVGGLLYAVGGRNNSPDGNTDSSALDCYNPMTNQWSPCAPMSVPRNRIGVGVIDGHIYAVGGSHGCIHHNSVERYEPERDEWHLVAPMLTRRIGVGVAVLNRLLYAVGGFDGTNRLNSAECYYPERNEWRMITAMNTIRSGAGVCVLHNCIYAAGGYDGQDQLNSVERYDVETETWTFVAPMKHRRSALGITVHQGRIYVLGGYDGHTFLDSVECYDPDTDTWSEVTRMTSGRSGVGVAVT

`C#CCN(c1ccc(NS(=O)(=O)c2ccc(F)cc2)c2ccccc12)[C@@H](C)CC(=O)O` [DDO-1190, (S)-3-((4-((4-fluorophenyl)sulfonamido)naphthalen-1-yl)(prop-2-yn-1-yl)amino) butanoic acid]: the IC50 under setting [1] came out at 4000 nM.

Consider `COc1ccc(S(=O)(=O)N(CC(=O)O)c2ccc(N(Cc3cccc(C)c3)[C@@H](C)CC(=O)O)c3ccccc23)cc1` [DDO-1169], for which the IC50 under setting [2] worked out at 205 nM. Under setting [1], `C#CCN(c1ccc(NS(=O)(=O)c2ccc(NC(C)=O)cc2)c2ccccc12)[C@@H](C)CC(=O)O` [DDO-1188, (S)-3-((4-((4-acetamidophenyl)sulfonamido)naphthalen-1-yl) (prop-2-yn-1-yl)amino) butanoic acid] registered a half-maximal inhibitory concentration (IC50) of 1460 nM. `COc1ccc(S(=O)(=O)N(CC(=O)O)c2ccc(N(Cc3ccc(C)cc3)[C@@H](C)CC(=O)O)c3ccccc23)cc1` [DDO-1163] yielded a concentration for half-maximal inhibition (IC50) under setting [2] of 152 nM. Still for that read-out and setting: the value for `COc1ccc(S(=O)(=O)Nc2ccc(N(Cc3ccc(Cl)cc3)[C@@H](C)CC(=O)O)c3ccccc23)cc1` [DDO-1164, (S)-3-((4-chlorobenzyl) (4-((4-methoxyphenyl)sulfonamido)naphthalen-1-yl)amino) butanoic acid] was 4100 nM.

Turning to `C#CCN(c1ccc(N(CC(=O)O)S(=O)(=O)c2ccc3c(c2)CCO3)c2ccccc12)[C@@H](C)CC(=O)O` [DDO-1223, (S)-3-((4-((N-(Carboxymethyl)-2,3-dihydrobenzofuran)-5-sulfonamido)naphthalen-1-yl)(prop-2-yn-1-yl)amino) butanoic acid], the IC50 under setting [3] was 86 nM. Molecule `COc1ccc(S(=O)(=O)Nc2ccc(N(Cc3cccc(F)c3)[C@@H](C)CC(=O)O)c3ccccc23)cc1` [DDO-1176, (S)-3-((3-fluorobenzyl) (4-((4-methoxyphenyl)sulfonamido)naphthalen-1-yl)amino) butanoic acid] had a half-maximal inhibitory concentration (IC50) under setting [2] of 2470 nM.

On to `C#CCN(c1ccc(N(CC(=O)O)S(=O)(=O)c2ccc(OC)c(C)c2)c2ccccc12)[C@@H](C)CC(=O)O` [DDO-1217, (S)-3-((4-((N-(Carboxymethyl)-4-methoxy-3-methylphenyl)sulfonamido)naphthalen-1-yl)(prop-2-yn-1-yl)amino) butanoic acid], for which the IC50 under setting [3] was found to be 37 nM. Regarding `COc1ccc(S(=O)(=O)N(CC(=O)O)c2ccc(N(Cc3ccc(F)cc3)[C@@H](C)CC(=O)O)c3ccccc23)cc1` [DDO-1167, (S)-3-((4-((N-(carboxymethyl)-4-methoxyphenyl)sulfonamido)naphthalen-1-yl) (4-fluorobenzyl)amino) butanoic acid], the IC50 under setting [2] is 176 nM. Turning to `C#CCN(c1ccc(NS(=O)(=O)c2ccccc2C)c2ccccc12)[C@@H](C)CC(=O)O` [DDO-1202, (S)-3-((4-((2-methylphenyl)sulfonamido)naphthalen-1-yl)(prop-2-yn-1-yl)amino) butanoic acid], the half-maximal inhibitory concentration (IC50) under setting [1] was 240 nM. `C#CCN(c1ccc(N(CC(=O)O)S(=O)(=O)c2c(C)c(C)cc(C)c2C)c2ccccc12)[C@@H](C)CC(=O)O` [DDO-1209, (S)-3-((4-((N-(Carboxymethyl)-2,3,5,6-tetramethylphenyl)sulfonamido)naphthalen-1-yl)(prop-2-yn-1-yl)amino) butanoic acid]: where the note is “general formula IV compounds”, the IC50 worked out at 150 nM.

Under setting [1], `C#CCN(c1ccc(NS(=O)(=O)c2ccccc2OC)c2ccccc12)[C@@H](C)CC(=O)O` [DDO-1198] gave a half-inhibitory concentration (IC50) of 2000 nM.

With `C#CCN(c1ccc(N(CC(=O)O)S(=O)(=O)c2c(C)cc(C)cc2C)c2ccccc12)[C@@H](C)CC(=O)O` [DDO-1207, (S)-3-((4-((N-(Carboxymethyl)-2,4,6-trimethylphenyl)sulfonamidyl)naphthalen-1-yl)(prop-2-yn-1-yl)amino) butanoic acid], where the note is “general formula IV compounds”, the IC50 was 15 nM. For `C#CCN(c1ccc(NS(=O)(=O)c2c(C)cc(C)cc2C)c2ccccc12)[C@@H](C)CC(=O)O` [DDO-1206, (S)-3-(prop-2-yn-1-yl(4-((2,4,6-trimethylphenyl)sulfonamido)naphthalen-1-yl)amino) butanoic acid], the IC50 under setting [1] stood at 41 nM. For the molecule `COc1ccc(S(=O)(=O)Nc2ccc(N(Cc3ccccc3F)[C@@H](C)CC(=O)O)c3ccccc23)cc1` [DDO-1178, (S)-3-((2-fluorobenzyl) (4-((4-methoxyphenyl)sulfonamido)naphthalen-1-yl)amino) butanoic acid], the IC50 under setting [2] was 460 nM.

With `C#CCN(c1ccc(N(CC(=O)O)S(=O)(=O)c2ccc(C)cc2)c2ccccc12)[C@@H](C)CC(=O)O` [DDO-1195, (S)-3-((4-((N-(Carboxymethyl)-4-methylphenyl)sulfonamide)naphthalen-1-yl)(prop-2-yn-1-yl)amino) butanoic acid], where the note is “general formula IV compounds”, the half-maximal inhibitory concentration (IC50) is 110 nM. `COc1ccc(S(=O)(=O)N(CC(=O)O)c2ccc(N(Cc3ccccc3C)[C@@H](C)CC(=O)O)c3ccccc23)cc1` [DDO-1171] returned an IC50 under setting [2] of 113 nM. `C#CCN(c1ccc(N(CC(=O)O)S(=O)(=O)c2ccc(OC)c(OC)c2)c2ccccc12)[C@@H](C)CC(=O)O` [DDO-1211, (S)-3-((4-((N-(Carboxymethyl)-3,4-dimethoxyphenyl)sulfonamido)naphthalen-1-yl)(prop-2-yn-1-yl)amino) butanoic acid] yielded an IC50 under setting [3] of 59 nM. On to `COc1ccc(S(=O)(=O)Nc2ccc(N(Cc3ccc(F)cc3)[C@@H](C)CC(=O)O)c3ccccc23)cc1` [DDO-1166, (S)-3-((4-fluorobenzyl) (4-((4-methoxyphenyl)sulfonamido)naphthalen-1-yl)amino) butanoic acid], for which the half-maximal inhibitory concentration (IC50) under setting [2] came out at 2150 nM. As to `C#CCN(c1ccc(NS(=O)(=O)c2ccc(OC)c(F)c2)c2ccccc12)[C@@H](C)CC(=O)O` [DDO-1212, (S)-3-((4-((3-fluoro-4-methoxyphenyl)sulfonamido)naphthalen-1-yl) (prop-2-yn-1-yl)amino) butanoic acid], the IC50 under setting [3] was found to be 277 nM. As for `COc1ccc(S(=O)(=O)N(CC(=O)O)c2ccc(N(Cc3cccc(Cl)c3)[C@@H](C)CC(=O)O)c3ccccc23)cc1` [DDO-1173, (S)-3-((4-((N-(Carboxymethyl)-4-methoxyphenyl)sulfonamido)naphthalen-1-yl) (3-chlorobenzyl)amino) butanoic acid], under setting [2], the IC50 was found to be 180 nM. The molecule `C#CCN(c1ccc(NS(=O)(=O)c2ccc(OC)cc2)c2ccccc12)[C@@H](C)CC(=O)O` [DDO-1180] came in with a 50% inhibitory concentration (IC50) under setting [1] of 95 nM. Consider `C#CCN(c1ccc(N(CC(=O)O)S(=O)(=O)c2ccccc2)c2ccccc12)[C@@H](C)CC(=O)O` [DDO-1187, (S)-3-((4-(N-(carboxymethyl)benzenesulfonamido)naphthalen-1-yl) (prop-2-yn-1-yl)amino) butanoic acid], for which the IC50 (general formula IV compounds) was 3000 nM.

In the case of `C#CCN(c1ccc(NS(=O)(=O)c2ccccc2)c2ccccc12)[C@@H](C)CC(=O)O` [DDO-1186, (S)-3-((4-(phenylsulfonamido)naphthalen-1-yl)(prop-2-yn-1-yl)amino) butanoic acid], under setting [1], the concentration for half-maximal inhibition (IC50) turned out to be 8000 nM. Take `COc1ccc(S(=O)(=O)Nc2ccc(N(Cc3ccccc3Cl)[C@@H](C)CC(=O)O)c3ccccc23)cc1` [DDO-1174, (S)-3-((2-chlorobenzyl) (4-((4-methoxyphenyl)sulfonamido)naphthalen-1-yl)amino) butanoic acid]: the half-inhibitory concentration (IC50) under setting [2] came to 1600 nM. `C#CCN(c1ccc(N(CC(=O)O)S(=O)(=O)c2ccc(C)cc2C)c2ccccc12)[C@@H](C)CC(=O)O` [DDO-1205] came in with a half-inhibitory concentration (IC50) (general formula IV compounds) of 27 nM. The molecule `C#CCN(c1ccc(NS(=O)(=O)c2ccc(OC)c(Cl)c2)c2ccccc12)[C@@H](C)CC(=O)O` [DDO-1214] returned a half-inhibitory concentration (IC50) under setting [3] of 75 nM.

Molecule `C#CCN(c1ccc(NS(=O)(=O)c2ccc(C)cc2)c2ccccc12)[C@@H](C)CC(=O)O` [DDO-1194, (S)-3-((4-((4-methylphenyl)sulfonamido)naphthalen-1-yl)(prop-2-yn-1-yl)amino) butanoic acid] registered a 50% inhibitory concentration (IC50) under setting [1] of 480 nM. As to `COc1ccc(S(=O)(=O)Nc2ccc(N(Cc3ccccc3C)[C@@H](C)CC(=O)O)c3ccccc23)cc1` [DDO-1170, (S)-3-((4-((4-methoxyphenyl)sulfonamido)naphthalen-1-yl) (2-methylbenzyl)amino) butanoic acid], the half-inhibitory concentration (IC50) under setting [2] came to 1090 nM. Same read-out and setting: the result for `COc1ccc(S(=O)(=O)N(CC(=O)O)c2ccc(N(Cc3cccc(F)c3)[C@@H](C)CC(=O)O)c3ccccc23)cc1` [DDO-1177, (S)-3-((4-((N-(carboxymethyl)-4-methoxyphenyl)sulfonamido)naphthalen-1-yl) (3-fluorobenzyl)amino) butanoic acid] reads 180 nM. For `C#CCN(c1ccc(N(CC(=O)O)S(=O)(=O)c2ccc(OC)cc2)c2ccccc12)[C@@H](C)CC(=O)O` [DDO-1181], the IC50 (general formula IV compounds) amounted to 68 nM.
